Laboratory results reported in patent US10307407B2, “9H-pyrimido [4,5-B] indoles as BET bromodomain inhibitors” (THE REGENTS OF THE UNIVERSITY OF MICHIGAN, priority 2015, dated 2019).

Key:
recombinant BRD4 BD1 = biological target: T1, recombinant BRD4 BD1 (Homo sapiens, UniProt O60885); test: Competitive fluorescence-polarization (FP) binding assay, BRD4 BD1; details: FAM labeled probe 1.5 nM, protein 10 nM, pH 6.5
T1 construct: recombinant BRD4 BD1 and BRD4 BD2 proteins
Procedure: (§1) Fluorescence Polarization (FP) competitive binding studies were carried out using a FAM labeled fluorescent probe (ZBA248 or BRD-1F) to determine binding affinities of representative Compounds of the Disclosure for recombinant BRD4 BD1 and BRD4 BD2 proteins. For example, equilibrium dissociation constants (Kd) values of ZBA248 to these six proteins were determined from protein saturation experiments by monitoring the total fluorescence polarization of mixtures composed with the fluorescent probe at a fixed concentration and proteins with increasing concentrations up to full saturation. Serial dilutions of testing protein were mixed with ZBA248 to a final volume of 200 μl in the assay buffer. In order to achieve large dynamic rages, particularly for BD1 bromodomains, 100 mM phosphate buffer (pH=6.5, 0.01% Triton X-100 (Sigma, 282103) being added right before assays) was used as the assay buffer. Final ZBA248 concentration was 1.5 nM for all proteins. Plates were incubated at room temperature for 30 minutes with gentle shaking to assure equilibrium. FP values in millipolarization units (mP) were measured using the Infinite M-1000 plate reader (Tecan U.S., Research Triangle Park, N.C.) in Microfluor 1 96-well, black, round-bottom plates (Thermo Scientific, Waltham, Mass.) at an excitation wavelength of 485 nm and an emission wavelength of 530 nm. Kd values of ZBA248 were calculated by fitting the sigmoidal dose-dependent FP increases as a function of protein concentrations using Graphpad Prism 6.0 software (Graphpad Software, San Diego, Calif.).
(§2) The IC50 and Ki values of representative Compounds of the Disclosure were determined in a competitive binding experiment as described above. Mixtures of 10 μl of the tested compounds in assay buffer with 40% Ethylene Glycol and 190 μl of preincubated protein/probe complex solution in the assay buffer (100 mM potassium phosphate, pH 6.5, 0.01% Triton X-100) were added into assay plates which were incubated at room temperature for 30 minutes with gentle shaking. Final concentrations of proteins were 10 and 6 nM in assays for BD1 and BD2 of BRD4, respectively. Final probe concentration is 1.5 nM in all assays. Negative controls containing protein/probe complex only (equivalent to 0% inhibition), and positive controls containing only free probes (equivalent to 100% inhibition), were included in each assay plate. FP values were measured as described above. IC50 values were determined by nonlinear regression fitting of the competition curves. Instead of being calculated from IC50 values as described before, Ki values of competitive inhibitors were obtained directly by nonlinear regression fitting as well, based upon the Kd values of the probe to different proteins, and concentrations of the proteins and probes in the competitive assays (Wang, FEBS Lett. 360; 111 (1995); Zhang et al., Analytical Biochemistry, 331; 138 (2004)).
(§3) Binding affinities of representative Compounds of the Disclosure to BRD4 BD1 and BRD4 BD2 proteins in competitive, fluorescence-polarization assays are presented in Table 2.

recombinant BRD4 BD2 = biological target: T2, recombinant BRD4 BD2 (Homo sapiens, UniProt O60885); test: Competitive fluorescence-polarization (FP) binding assay, BRD4 BD2; details: FAM labeled probe 1.5 nM, protein 6 nM, pH 6.5
T2 construct: recombinant BRD4 BD1 and BRD4 BD2 proteins
Procedure: as §1, §2, §3

MV4-11 cells = test: Cell growth inhibition, 4-day proliferation assay, MV4-11; type: cell-based; details: Homo sapiens, MV4-11, 96 h, acute leukemia cell line, 4 days treatment
Procedure: (§4) The effect of representative Compounds of the Disclosure on cell viability was determined in a 4-day proliferation assay. Cells were maintained in the appropriate culture medium with 10% FBS at 37° C. and an atmosphere of 5% CO2. All the cell lines were used within three months of thawing fresh vials.
(§5) Cells were seeded in 96-well flat bottom (Corning COSTAR, Corning, NY, cat#3595) or white opaque cell culture plates (BD Falcon, cat#353296) at a density of 3,000-10,000 cells/well in 75 μl of culture medium. Compounds were serially diluted in the appropriate medium, and 75 μl of the diluted compounds were added to the appropriate wells of the cell plate. After the addition of compounds, the cells were incubated at 37° C. in an atmosphere of 5% CO2 for 4 days. Cell viability was determined using the CellTiter-Glo® Luminescent Cell Viability Assay Kit (Promega, Madison, Wis.) for RS4-11 and MV4-11 cells and WST (2-(2-methoxy-4-nitrophenyl)-3-(4-nitrophenyl)-5-(2,4-disulfophenyl)-2H-tetrazolium, monosodium salt) Cell Counting-8 Kit (Dojindo Molecular Technologies, Inc., Rockville, Md.) for MDA-MB-231 cells according to the manufacturers' instructions.
For CellTiter-Glo assay (RS4-11 and MV4-11 cells), 100 μl of CellTiter-Glo® Reagent was added to each well, and then the plates were incubated at room temperature for 10-20 minutes. The luminescent signal was measured using a Tecan Infinite M1000 multimode microplate reader (Tecan, Morrisville, N.C.). The readings were normalized to the DMSO-treated cells and the IC50 was calculated by nonlinear regression (four parameters sigmoid fitted with variable slope, least squares fit, and no constraint) analysis using the GraphPad Prism 5 software.
(§6) Cell growth inhibition of representative Compounds of the Disclosure in representative breast cancer (MDA-MB-231), acute leukemia (MV4-11), and prostate cancer cell lines (LNCaP), as determined by a WST assay, are presented in Table 3. Cells were treated with each inhibitor for 4 days.

MDA-MB-231 cells = test: Cell growth inhibition, 4-day proliferation assay (WST), MDA-MB-231; type: cell-based; details: Homo sapiens, MDA-MB-231, 96 h, breast cancer cell line, 4 days treatment
Procedure: as §4, §5
For WST assay (MDA-MB-231 cells), WST-8 reagent was added to each well at a final concentration of 10% (v/v), and then the plates were incubated at 37° C. for 1-2 hours for color development. The absorbance was measured at 450 nm using a SPECTRAmax PLUS plate reader (Molecular Devices, Sunnyvale, Calif.). The readings were normalized to the DMSO-treated cells and the half maximal inhibitory concentration (IC50) was calculated by nonlinear regression (four parameters sigmoid fitted with variable slope, least squares fit, and no constraint) analysis using the GraphPad Prism 5 software (GraphPad Software, La Jolla, Calif.).
as §6

LNCaP cells = test: Cell growth inhibition, 4-day proliferation assay, LNCaP; type: cell-based; details: Homo sapiens, 96 h, prostate cancer cell line, 4 days treatment
Procedure: as §4, §5, §6

Row | IC50 (recombinant BRD4 BD1) | IC50 (recombinant BRD4 BD2) | IC50 (MV4-11 cells) | IC50 (MDA-MB-231 cells) | IC50 (LNCaP cells) | Compound
1 | 54 nM | 75.2 nM |  |  |  | COc1cc2c(cc1-c1c(C)noc1C)[nH]c1nc(C)nc(Nc3cc(C4CC4)nn3-c3ccc(C(=O)O)cc3)c12 [Cpd. No. 10, 4-(3-Cyclopropyl-5-((7-(3,5-dimethylisoxazol-4-yl)-6-methoxy-2-methyl-9H-pyrimido[4,5-b]indol-4-yl)amino)-1H-pyrazol-1-yl)benzoic acid]
2 | 59.7 nM | 34.3 nM |  |  |  | COc1cc2c(cc1-c1c(C)noc1C)[nH]c1nc(C)nc(Nc3cc(C4CC4)n(-c4cnn(C)c4)n3)c12 [Cpd. No. 13, N-(5-Cyclopropyl-1′-methyl-1′H-[1,4′-bipyrazol]-3-yl)-7-(3,5-dimethylisoxazol-4-yl)-6-methoxy-2-methyl-9H-pyrimido[4,5-b]indol-4-amine]
3 | 103 nM | 91.5 nM |  |  |  | COc1cc2c(cc1-c1c(C)n[nH]c1C)[nH]c1ncnc(Nc3cc(C4CC4)nn3C)c12 [Cpd. No. 11, N-(3-cyclopropyl-1-methyl-1H-pyrazol-5-yl)-7-(3,5-dimethyl-1H-pyrazol-4-yl)-6-methoxy-9H-pyrimido[4,5-b]indol-4-amine]
4 | 141 nM | 19.7 nM |  |  |  | COc1cc2c(cc1-c1c(C)noc1C)[nH]c1nc(C)nc(Nc3cc(C4CC4)nn3-c3cn(C)cn3)c12 [Cpd. No. 14, N-(3-Cyclopropyl-1-(1-methyl-1H-imidazol-4-yl)-1H-pyrazol-5-yl)-7-(3,5-dimethylisoxazol-4-yl)-6-methoxy-2-methyl-9H-pyrimido[4,5-b]indol-4-amine]
5 | 22.6 nM | 19 nM |  | 66 nM |  | COc1cc2c(cc1-c1c(C)noc1C)[nH]c1nc(C)nc(Nc3cc(C4CC4)nn3-c3ccncc3)c12 [Cpd. No. 9, N-(3-Cyclopropyl-1-(pyridin-4-yl)-1H-pyrazol-5-yl)-7-(3,5-dimethylisoxazol-4-yl)-6-methoxy-2-methyl-9H-pyrimido[4,5-b]indol-4-amine]
6 | 131 nM | 132 nM |  | 1400 nM |  | COc1cc2c(cc1-n1c(C)nnc1C)[nH]c1nc(C)nc(Nc3cc(C4CC4)nn3C)c12 [Cpd. No. 15, N-(3-cyclopropyl-1-methyl-1H-pyrazol-5-yl)-7-(3,5-dimethyl-4H-1,2,4-triazol-4-yl)-6-methoxy-2-methyl-9H-pyrimido[4,5-b]indol-4-amine]
7 | 18.2 nM | 12.1 nM |  |  |  | COc1cc2c(cc1-c1c(C)noc1C)[nH]c1nc(C)nc(Nc3cc(C4CC4)nn3-c3cnn(C)c3)c12 [Cpd. No. 12, N-(3-Cyclopropyl-1′-methyl-1′H-[1,4′-bipyrazol]-5-yl)-7-(3,5-dimethylisoxazol-4-yl)-6-methoxy-2-methyl-9H-pyrimido[4,5-b]indol-4-amine]
8 | > 1000 nM | > 1000 nM |  |  |  | COc1cc2c(cc1-c1c(C)nn(C)c1C)[nH]c1ncnc(Nc3cc(C4CC4)nn3C)c12 [Cpd. No. 21, N-(3-Cyclopropyl-1-methyl-1H-pyrazol-5-yl)-6-methoxy-7-(1,3,5-trimethyl-1H-pyrazol-4-yl)-9H-pyrimido[4,5-b]indol-4-amine]

Continued, molecule first:

Row | Compound | IC50 (recombinant BRD4 BD1) | IC50 (recombinant BRD4 BD2) | IC50 (MV4-11 cells) | IC50 (MDA-MB-231 cells) | IC50 (LNCaP cells)
9 | COCc1nc(Nc2c3c(nn2C(C)C)CCC3)c2c(n1)[nH]c1cc(-c3c(C)noc3C)c(OC)cc12 [Cpd. No. 6, 7-(3,5-dimethylisoxazol-4-yl)-N-(2-isopropyl-2,4,5,6-tetrahydrocyclopenta[c]pyrazol-3-yl)-6-methoxy-2-(methoxymethyl)-9H-pyrimido[4,5-b]indol-4-amine] | 3.6 nM | 2.9 nM | 4 nM | 6 nM | 
10 | COCc1nc(Nc2cc(C3CC3)nn2C(C)C)c2c(n1)[nH]c1cc(-c3c(C)noc3C)c(OC)cc12 [Cpd. No. 7, N-(3-cyclopropyl-1-isopropyl-1H-pyrazol-5-yl)-7-(3,5-dimethylisoxazol-4-yl)-6-methoxy-2-(methoxymethyl)-9H-pyrimido[4,5-b]indol-4-amine] | 3.9 nM | 2.1 nM | 3 nM | 6 nM | 
11 | COc1cc2c(cc1-n1c(C)nnc1C)[nH]c1ncnc(Nc3cc(C4CC4)nn3C)c12 [Cpd. No. 8, N-(3-Cyclopropyl-1-methyl-1H-pyrazol-5-yl)-7-(3,5-dimethyl-4H-1,2,4-triazol-4-yl)-6-methoxy-9H-pyrimido[4,5-b]indol-4-amine] | 652 nM | 1300 nM |  | > 1000 nM | 
12 | CCn1nc2c(c1Nc1nc(N)nc3[nH]c4cc(-c5c(C)noc5C)c(OC)cc4c13)CCC2 [Cpd. No. 4, 7-(3,5-dimethylisoxazol-4-yl)-N4-(2-ethyl-2,4,5,6-tetrahydrocyclopenta[c]pyrazol-3-yl)-6-methoxy-9H-pyrimido[4,5-b]indole-2,4-diamine] | 1 nM | 2.5 nM |  | 6 nM | 20 nM
13 | COc1cc2c(cc1-c1c(C)noc1C)[nH]c1nc(N)nc(Nc3c4c(nn3C)CCC4)c12 [Cpd. No. 3, 7-(3,5-dimethylisoxazol-4-yl)-6-methoxy-N4-(2-methyl-2,4,5,6-tetrahydrocyclopenta[c]pyrazol-3-yl)-9H-pyrimido[4,5-b]indole-2,4-diamine] | 3.5 nM | 1.6 nM |  | 18 nM | 67 nM
14 | COc1cc2c(cc1Br)[nH]c1ncnc(Nc3cc(C4CC4)nn3C)c12 [Cpd. No. 1, 7-Bromo-N-(3-cyclopropyl-1-methyl-1H-pyrazol-5-yl)-6-methoxy-9H-pyrimido[4,5-b]indol-4-amine] | > 1000 nM | > 1000 nM |  |  | 
15 | COc1cc2c(cc1-c1c(C)noc1C)[nH]c1nc(N)nc(Nc3cc(C4CC4)nn3C(C)C)c12 [Cpd. No. 2, N4-(3-cyclopropyl-1-isopropyl-1H-pyrazol-5-yl)-7-(3,5-dimethylisoxazol-4-yl)-6-methoxy-9H-pyrimido[4,5-b]indole-2,4-diamine] | 1 nM | 2.1 nM |  | 46 nM | 3 nM
